The results in this text go back to patent US20130225694A1, “COMPOSITIONS AND METHODS OF INHIBITING RETINAL DEGENERATION” (Oklahoma Medical Research Foundation, priority 2012, published 2013).

Like-named read-outs stand apart in the source and are kept apart here.

For one assay, the target named is T1, RPE65 isomerohydrolase (Bos taurus, UniProt Q28175).
T1 construct: Bovine RPE microsomes were used as a source of the RPE65 protein; from tissue; host or cells: bovine RPE microsomes
Description: In vitro RPE65 isomerohydrolase assay with bovine RPE microsomes (Example 3). The class given is biochemical. The source says: In this Example, the effect of several PBN analogs on RPE65 isomerohydrolase activity was investigated in an in vitro assay. The chemical structures of the PBN analogs utilized are described herein above. Bovine RPE microsomes were used as a source of the RPE65 protein and all-trans-[^3H] retinol was a substrate for the isomerohydrolase assay. The produced 11-cis-[^3H] retinol was quantified by normal phase HPLC with flow scintillation analyzer. The inhibition of isomerohydrolase activity was dependent on the PBN analog's concentration.
FIG. 9 also illustrates the calculation of IC50 values for the two difluoro-PBN analogs. IC50 values are the concentration of the inhibitor that inhibits 50% of the enzymatic activity. Therefore, the smaller the IC50 value, the better the drug.

A further assay relates to rhodopsin. Nature of the assay: Rhodopsin regeneration after topical eye drops in mice. The class given is in vivo, Balb/c mice. How it is done:
Panel A: Application scheme and harvesting of the eye. 3 h group received 2 applications and 6 h group received 3 applications. Panel B: Rhodopsin content was measured as pmole/eye. In 1 h in the dark, untreated eyes (NT-LA 1 h DA, no treatment-light adapted followed by 1 hour dark adaptation) and vehicle-treated eyes recovered 75-80% rhodopsin [dark-adapted (DA) control is 100%], whereas 3 h PBN recovered only 43% and 6 h PBN only 29%. (***P<0.0001 compared to vehicle, n=8; ##p<0.005 between 3 h and 6 h group, n=8).
An eye drop formulation was used with various absorption enhancers for topical application of PBN to mouse eyes. […] One hour dark adaptation followed by light causes 75-80% recovery of bleachable rhodopsin in the Balb/c mice (FIG. 18B, NT-LA 1 h DA). The eye drop without PBN (vehicle) had no effect on rhodopsin regeneration (FIG. 18B, vehicle).
Eye drop formulations were prepared as described in Example 7 and contained 5% or 10% of a PBN derivative. The eye drop formulations were applied to Balb/c mice by the 6 h group application scheme shown in FIG. 18A, in which the eye drops were applied at 6, 3, and 0 h before dark adaptation. The eye drops were applied to completely light-adapted mouse eyes, and the mice were then moved to the dark for 1 h to allow the regeneration of bleachable rhodopsin. One hour dark adaptation followed by light causes […] recovery of bleachable rhodopsin in untreated mice (00, No Treatment). The eye drop without any nitrones (vehicle) had no effect on rhodopsin regeneration (000, vehicle).

Setting [1] is: apparent IC50, bovine RPE microsomes, all-trans-[3H] retinol substrate (Table 1), read-out: IC50 Values for the Inhibition of RPE65 Isomerohydrolase Reaction.
[2] abbreviates: in vitro RPE65 isomerohydrolase IC50 values repeated in Table 7, read-out: IC50.

T1 sequence (Q28175 whole entry): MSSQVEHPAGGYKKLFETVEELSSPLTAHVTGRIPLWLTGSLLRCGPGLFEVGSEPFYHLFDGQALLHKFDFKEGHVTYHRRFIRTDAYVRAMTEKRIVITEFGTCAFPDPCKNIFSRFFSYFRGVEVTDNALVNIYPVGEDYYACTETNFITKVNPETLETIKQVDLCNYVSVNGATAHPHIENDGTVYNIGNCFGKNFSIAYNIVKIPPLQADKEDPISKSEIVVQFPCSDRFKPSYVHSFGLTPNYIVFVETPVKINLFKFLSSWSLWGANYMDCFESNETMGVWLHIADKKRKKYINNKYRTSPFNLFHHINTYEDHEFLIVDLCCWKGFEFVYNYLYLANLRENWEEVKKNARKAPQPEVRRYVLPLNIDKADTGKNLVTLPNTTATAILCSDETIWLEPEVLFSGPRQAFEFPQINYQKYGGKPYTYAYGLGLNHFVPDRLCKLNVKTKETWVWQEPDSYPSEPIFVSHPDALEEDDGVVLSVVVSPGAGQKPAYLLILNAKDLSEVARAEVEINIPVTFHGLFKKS

Broadly, the IC50 is the concentration that inhibits the measured activity by half. Turning to `CC(C)(C)/[N+]([O-])=C/c1ccccc1F` [Compound 7, 2-Fluorophenyl t-butyl nitrone], the IC50 at RPE65 isomerohydrolase (setting [1]) and on RPE65 isomerohydrolase (setting [2]) was 1300 µM in each case.
`CC(C)(C)/[N+]([O-])=C/c1cccc(F)c1` [Compound 8, 3-Fluorophenyl t-butyl nitrone]: the IC50 on RPE65 isomerohydrolase (setting [1]) and at RPE65 isomerohydrolase (setting [2]) was 280 µM throughout.
For the compound `CC(C)(C)/[N+]([O-])=C/c1cc(F)cc(F)c1` [Compound 9, 3,5-Difluorophenyl t-butyl nitrone], the IC50 on RPE65 isomerohydrolase (setting [1]) and on RPE65 isomerohydrolase (setting [2]) was 500 µM throughout.
Turning to `CC(C)(C)/[N+]([O-])=C/c1ccc(F)c(F)c1` [Compound 10, 3,4-Difluorophenyl t-butyl nitrone], the half-maximal inhibitory concentration (IC50) at RPE65 isomerohydrolase (setting [1]) and at RPE65 isomerohydrolase (setting [2]) was 50 µM in each case. Besides, the “RPE65 inhibition compared with PBN” value at RPE65 isomerohydrolase (summary of Table 1) is recorded as “more effective at inhibiting RPE65 activity than the native PBN molecule”. Further, the “% of Rhodopsin recovery” value in the assay on rhodopsin (5% in eye drop at 6, 3 and 0 h before dark adaptation, LA + 1 h DA, DA control = 100) is given as 39.31%. Besides, in the assay on rhodopsin (eye drop formulation, summary of Table 7), the “inhibition of rhodopsin regeneration as eye drop” value is “more effective in inhibiting rhodopsin regeneration than PBN”.
